# Data: BindingDB's records for doi:10.7270/Q2CZ35ND (Burnham Center For Chemical Genomics, 2011)
# Biological target: DNA dC->dU-editing enzyme APOBEC-3A (Homo sapiens, UniProt P31941)
# Assay: A3A deaminase inhibition for selectivity – biochemical, dose response (AID 504722)
# Details: 25 °C
# Chain of DNA dC->dU-editing enzyme APOBEC-3A (P31941 whole entry): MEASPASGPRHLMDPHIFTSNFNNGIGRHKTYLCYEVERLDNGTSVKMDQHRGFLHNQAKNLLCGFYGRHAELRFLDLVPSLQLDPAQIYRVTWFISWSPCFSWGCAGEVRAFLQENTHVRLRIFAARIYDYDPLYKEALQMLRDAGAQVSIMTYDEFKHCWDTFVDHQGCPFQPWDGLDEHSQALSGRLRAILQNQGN
row,SMILES,IC50
1,"COc1ccc(-n2c(O)cc(Sc3nnc(-c4ccccc4)[nH]3)c2O)cc1 [1-(4-methoxyphenyl)-3-[(5-phenyl-1H-1,2,4-triazol-3-yl)thio]pyrrolidine-2,5-dione]",> 100 µM
2,"OCC12C=CC(O1)c1c2c(O)n(-c2ccccc2-c2ccccc2)c1O (stereo not drawn) [7-(hydroxymethyl)-2-(2-phenylphenyl)-4,7a-dihydro-3aH-octahydro-1H-4,7-epoxyisoindole-1,3-dione]",> 100 µM
3,CCOc1ccc(-n2c(O)cc(Sc3nnc(-c4ccccc4)[nH]3)c2O)cc1 [MLS000765380],> 100 µM
